Marks after values point to notes of the source that are not given here.
Assays:
IL-6 = test: Cytokine assay (ELISA), IL-6; assay type: in vivo, Zucker Fatty Rats; settings: Experiment 2
Method: (§1) Various cytokines were measured by ELISA methodology using kits from the following sources: rat MCP-1—Assay Designs Inc., Ann Arbor, Mich.; rat adiponectin—ALPCO Diagnostics, Salem, N.H.; TNF-a, ALPCO Diagnostics, Salem, N.H.; RAT IL-1B—Assay Designs Inc, Ann Arbor, Mich.; RAT IL-6—ALPCO Diagnostics, Salem, N.H.

angiotensin-2 = test: Serum angiotensin-2 levels (radioimmunoassay); assay type: in vivo, Zucker Fatty Rats
Method: Serum angiotensin-2 was trapped by octylminicolumns (Amprep-C8, 500 mg, Amersham, Buckingshire, UK). Each minicolumn was prewashed with 5 mL of 100% methanol and then with 10 mL of 0.1% trifluoroacetic acid (TFA) in distilled water. After the serum was passed through the minicolumn, it was washed with 0.1% TFA again. […] Samples were collected and dried in a vacuum centrifuge and dissolved in 0.1M Tris-acetate buffer (pH 7.4) containing 2.6 mM disodium salt of ethylenediaminetetra-acetic acid (EDTA), 1 mM phenylmethylsulphonyl fluoride, and 0.1% bovine serum albumin.
Angiotensin-2 was measured by radioimmunoassay using an angiotensin-2 antibody (Peninsula Laboratories Inc., Belmont, Calif.). The sensitivity of the assay is 1.0 pg/tube. The 500-fold diluted angiotensin-2 antibody (100 μL) was added to the sample (400 μL) and standard tubes that were incubated 24 hours at 4° C.

Zucker Fatty Rats (ZFR) [1] = test: Insulin Challenge Testing (ICT); assay type: in vivo; settings: Experiment 1, survivors after heat stress
Method: Testing was commenced after 17-19 hours of food deprivation. For ICT, 0.6 unit of regular insulin/kg BW (Eli Lilly Co., Indianapolis, Ind.) was administered, and blood for glucose determination was obtained from the tail vein at 7.5 min after injection. Glucose was estimated using commercial glucose strips (Lifescan, One Touch Ultra, […], Calif.).

DNA fragmentation = DNA fragmentation in liver and kidney; assay type: in vivo, Zucker Fatty Rats; settings: Experiment 2; for DNA Fragmentation, Kidney / DNA Fragmentation, Liver: percentage of total DNA in the supernatant fraction
Method: Frozen liver and kidney samples were homogenized in lysis buffer (5 mM Tris-HCl, 20 mM EDTA, 0.5% Triton X-100, pH 8.0). Homogenates were centrifuged at 27,000 g for 20 min to separate intact chromatin in the pellet from fragmented DNA in the supernatant fraction. Pellets were re-suspended in 0.5 M perchloric acid and 5.5 M perchloric acid was added to supernatant samples to reach a concentration of 0.5 M. Samples were heated at 90° C. for 15 min and centrifuged at 1,500 g for 10 min to remove protein. Resulting supernatants were reacted with diphenylamine for 16-20 h at room temperature. Absorbance was measured at 600 nm. DNA fragmentation in control samples was expressed as percentage of total DNA appearing in the supernatant fraction. Treatment effects are reported as percent of control fragmentation.

RAS = test: Losartan challenge (decrease in SBP to estimate activity of the RAS); assay type: in vivo, Zucker Fatty Rats; settings: losartan 40 mg/kg orally
Description: Three and six hours after lavage, SBP was remeasured. The decreased SBP after losartan was used to estimate activity of the RAS.

IL-1B = test: Cytokine assay (ELISA), IL-1B; assay type: in vivo, Zucker Fatty Rats; settings: Experiment 2
Method: as §1

TNF-α = test: Cytokine assay (ELISA), TNF-α; assay type: in vivo, Zucker Fatty Rats; settings: Experiment 2
Method: as §1

[2] = tested on: Thiobarbituric acid-reactive substances (TBARS); test: Lipid peroxidation (TBARS) in hepatic and kidney homogenates; assay type: in vivo, Zucker Fatty Rats; settings: Experiment 2
Method: Thiobarbituric acid-reactive substances (TBARS) as an index of lipid peroxidation were determined on hepatic and kidney homogenates from control and treated and malondialdehyde (MDA) was used as the standard.

Zucker Fatty Rats (ZFR) [3] = test: Intraperitoneal Glucose Tolerance Test (ipGTT); assay type: in vivo; settings: Experiment 2; for insulin concentration one hour after the glucose challenge: glucose 2.5 g/kg i.p.; for Baseline insulin concentration / average baseline glucose level: ipGTT baseline
Method: During the ipGTT, glucose (2.5 g/kg BW) was injected intraperitoneally (i.p.) to challenge the tolerance to glucose. Drops of blood were obtained from the tail at 0, 30, 60, 120, 180 and 240 minutes post injection. Glucose was estimated using commercial glucose strips (Lifescan, One Touch Ultra, […], Calif.).

Zucker Fatty Rats (ZFR) [4] = test: Survival after accidental heat stress; assay type: in vivo; settings: Experiment 1; for survival after heat stress (survivors/group): day 42, 86-89° F. for 5-6 hours
Method: For two experiments, a total of 96 Zucker Fatty Rats (ZFR) (Charles River, Wilmington, Mass.) were used: 48 in each experiment were divided into four groups of 12 rats. Initial body weights ranged between 434 and 624 g in the first experiment and between 388 and 520 g in the second. All rats consumed a regular rat diet in crushed form (Purina Rat Chow, Ralston Purina, St. Louis, Mo.). Sucrose was added to the pulverized regular rat chow (30%, w/w). The four groups comprised a control eating the described diet and three test groups eating the same diet but with the addition of captopril or astaxanthin (two different doses). […] The amount of astaxanthin added was based on 2% (w/w) content of astaxanthin to powder. The first study continued for 57 days while the second continued for 75 days.
On the 42nd day, the temperature of rodent quarters rose from 72° F. to the range of 86-89° F. It was estimated that the rats were exposed to this elevated temperature for 5-6 hours. […] In contrast all ZFR in the Hi Asta group survived (11/11).
On a hot summer day, the air conditioning system in the animal quarters ceased functioning. The internal temperature of the animal quarters rose to a Fahrenheit range in the high 80's. Due to this heat stress, several ZFR that had already undergone almost six weeks of study expired. […] This can be attributed to poor stress handling of ZFR.

[5] = Hi Asta, astaxanthin 25 mg/kg in feed
[6] = Lo Asta, astaxanthin 5 mg/kg in feed
[7] = Experiment 2, Hi Asta, astaxanthin 25 mg/kg in feed
[8] = Experiment 2, Lo Asta, astaxanthin 5 mg/kg in feed
[9] = Experiment 2, captopril 30 mg/kg in feed

CC1=C(/C=C/C(C)=C/C=C/C(C)=C/C=C/C=C(C)/C=C/C=C(C)/C=C/C2=C(C)C(=O)[C@@H](O)CC2(C)C)C(C)(C)C[C@H](O)C1=O [Asta, astaxanthin]
IL-6 (IL-6; [5]): 433.0 ± 9.3 | IL-6 (IL-6; [6]): 470.0 ± 21^ | Angio 2 (angiotensin-2; [7]): 177.0 ± 5.2 pg/mL | Angio 2 (angiotensin-2; [8]): 197.0 ± 7.2 pg/mL | Insulin: decrease in circulating glucose after insulin challenge (ICT) (Zucker Fatty Rats (ZFR) [1]; [5]): -7.6 ± 2.5 mg/dL | Insulin: decrease in circulating glucose after insulin challenge (ICT) (Zucker Fatty Rats (ZFR) [1]; [6]): -8.5 ± 4.1 mg/dL | DNA Fragmentation (% Control), Kidney (DNA fragmentation; [5]): 100 % Control | DNA Fragmentation (% Control), Liver (DNA fragmentation; [5]): 103 % Control | DNA Fragmentation (% Control), Kidney (DNA fragmentation; [6]): 102 % Control | DNA Fragmentation (% Control), Liver (DNA fragmentation; [6]): 108 % Control | DNA Fragmentation, Kidney (DNA fragmentation; [5]): 4.3 ± 0.48 | DNA Fragmentation, Liver (DNA fragmentation; [5]): 4.1 ± 0.33 | DNA Fragmentation, Kidney (DNA fragmentation; [6]): 4.4 ± 0.37 | DNA Fragmentation, Liver (DNA fragmentation; [6]): 4.3 ± 0.38 | Losartan: decrease in SBP after losartan challenge (RAS; Experiment 1, survivors after heat stress, Hi Asta, astaxanthin 25 mg/kg in feed): 28.0 ± 2.5 | Losartan: decrease in SBP after losartan challenge (RAS; Experiment 1, survivors after heat stress, Lo Asta, astaxanthin 5 mg/kg in feed): 38.0 ± 3.2 | Losartan: decrease in SBP after losartan challenge (RAS; [7]): 27.5 ± 1.3 mm Hg | Losartan: decrease in SBP after losartan challenge (RAS; [8]): 33.8 ± 2.8 mm Hg | IL-1β (IL-1B; [5]): 440.0 ± 25.5 | IL-1β (IL-1B; [6]): 490.0 ± 21.7 | TNF-α (TNF-α; [5]): 294.0 ± 13.0 | TNF-α (TNF-α; [6]): 349.0 ± 11.9 | Lipid peroxidation, Kidney [2, 5]: 3.5 ± 0.30 nmoles MDA/mg protein | Lipid peroxidation, Liver [2, 5]: 3.9 ± 0.46 nmoles MDA/mg protein | Lipid peroxidation, Kidney [2, 6]: 3.9 ± 0.48 nmoles MDA/mg protein | Lipid peroxidation, Liver [2, 6]: 4.7 ± 0.53 nmoles MDA/mg protein | insulin concentration one hour after the glucose challenge (Zucker Fatty Rats (ZFR) [3]; [5]): 2.23 ng/mL | insulin concentration one hour after the glucose challenge (Zucker Fatty Rats (ZFR) [3]; [6]): 2.15 ng/mL | Baseline insulin concentration (Zucker Fatty Rats (ZFR) [3]; [5]): 0.90 ng/mL | average baseline glucose level (Zucker Fatty Rats (ZFR) [3]; [5]): 406 mg/dL | Baseline insulin concentration (Zucker Fatty Rats (ZFR) [3]; [6]): 0.80 ng/mL | average baseline glucose level (Zucker Fatty Rats (ZFR) [3]; [6]): 346 mg/dL | area under the curve after glucose challenge vs control (Zucker Fatty Rats (ZFR) [3]; six rats per group, Hi Asta, astaxanthin 25 mg/kg in feed): statistically significant lower average reading than control | survival percentage after heat stress (Zucker Fatty Rats (ZFR) [4]; [5]): 100% | survival percentage after heat stress (Zucker Fatty Rats (ZFR) [4]; [6]): 33% | survival after heat stress (survivors/group) (Zucker Fatty Rats (ZFR) [4]; [5]): 11/11 | survival after heat stress (survivors/group) (Zucker Fatty Rats (ZFR) [4]; [6]): 4/12

C[C@H](CS)C(=O)N1CCC[C@H]1C(=O)O [Captopril, reference compound]
IL-6 (IL-6; captopril 30 mg/kg in feed): 391.0 ± 12*^ | Angio 2 (angiotensin-2; [9]): 162.0 ± 6.4 pg/mL | Insulin: decrease in circulating glucose after insulin challenge (ICT) (Zucker Fatty Rats (ZFR) [1]; captopril 30 mg/kg in feed): -9.8 ± 3.5 mg/dL | DNA Fragmentation (% Control), Kidney (DNA fragmentation; captopril 30 mg/kg in feed): 105 % Control | DNA Fragmentation (% Control), Liver (DNA fragmentation; captopril 30 mg/kg in feed): 100 % Control | DNA Fragmentation, Kidney (DNA fragmentation; captopril 30 mg/kg in feed): 4.5 ± 0.51 | DNA Fragmentation, Liver (DNA fragmentation; captopril 30 mg/kg in feed): 4.0 ± 0.17 | Losartan: decrease in SBP after losartan challenge (RAS; Experiment 1, survivors after heat stress, captopril 30 mg/kg in feed): 29.0 ± 2.4 | Losartan: decrease in SBP after losartan challenge (RAS; [9]): 30.6 ± 1.8 mm Hg | IL-1β (IL-1B; captopril 30 mg/kg in feed): 416.0 ± 14.8 | TNF-α (TNF-α; captopril 30 mg/kg in feed): 242.0 ± 13.6 | Lipid peroxidation, Kidney ([2]; captopril 30 mg/kg in feed): 3.4 ± 0.44 nmoles MDA/mg protein | Lipid peroxidation, Liver ([2]; captopril 30 mg/kg in feed): 4.0 ± 0.29 nmoles MDA/mg protein | insulin concentration one hour after the glucose challenge (Zucker Fatty Rats (ZFR) [3]; captopril 30 mg/kg in feed): 2.37 ng/mL | Baseline insulin concentration (Zucker Fatty Rats (ZFR) [3]; captopril 30 mg/kg in feed): 0.82 ng/mL | average baseline glucose level (Zucker Fatty Rats (ZFR) [3]; captopril 30 mg/kg in feed): 302 mg/dL | survival percentage after heat stress (Zucker Fatty Rats (ZFR) [4]; captopril 30 mg/kg in feed): 36% | survival after heat stress (survivors/group) (Zucker Fatty Rats (ZFR) [4]; captopril 30 mg/kg in feed): 4/11
